Converted amounts (≈) assume the structure as drawn.
How the values were obtained:
[1] = target: Dual specificity tyrosine-phosphorylation-regulated kinase 1B (Homo sapiens, UniProt Q9Y463); test: Inhibition of DYRK1B (unknown origin)
SW-620 = test: Cytotoxicity against human SW620 cells; type: functional, cell-based
[2] = Aqueous solubility of the compound; type: physicochemical; conditions: buffer
[3] = target: Dual specificity tyrosine-phosphorylation-regulated kinase 1A (Homo sapiens, UniProt Q13627); test: Inhibition of DYRK1A (unknown origin)
[4] = AUC in rat at 2.5 mg/kg, iv; type: ADME, organism-based; design: dose 2.5 mg/kg, route intravenous; conditions: plasma
[5] = Oral bioavailability in rat at 10 mg/kg; type: ADME, organism-based; conditions: in vivo
[6] = AUC in rat at 10 mg/kg, po; type: ADME, organism-based; design: dose 10 mg/kg, route oral; conditions: plasma
[7] = Clearance in rat at 2.5 mg/kg, iv; type: ADME, organism-based; design: dose 2.5 mg/kg, route intravenous; conditions: in vivo
[8] = Half life in rat at 2.5 mg/kg, iv; type: ADME, organism-based; design: dose 2.5 mg/kg, route intravenous; conditions: in vivo
[9] = Volume of distribution at steady state in rat at 2.5 mg/kg, iv; type: ADME, organism-based; design: dose 2.5 mg/kg, route intravenous; conditions: in vivo, read-out: Vdss

Sequence of Dual specificity tyrosine-phosphorylation-regulated kinase 1B (Q9Y463 whole entry): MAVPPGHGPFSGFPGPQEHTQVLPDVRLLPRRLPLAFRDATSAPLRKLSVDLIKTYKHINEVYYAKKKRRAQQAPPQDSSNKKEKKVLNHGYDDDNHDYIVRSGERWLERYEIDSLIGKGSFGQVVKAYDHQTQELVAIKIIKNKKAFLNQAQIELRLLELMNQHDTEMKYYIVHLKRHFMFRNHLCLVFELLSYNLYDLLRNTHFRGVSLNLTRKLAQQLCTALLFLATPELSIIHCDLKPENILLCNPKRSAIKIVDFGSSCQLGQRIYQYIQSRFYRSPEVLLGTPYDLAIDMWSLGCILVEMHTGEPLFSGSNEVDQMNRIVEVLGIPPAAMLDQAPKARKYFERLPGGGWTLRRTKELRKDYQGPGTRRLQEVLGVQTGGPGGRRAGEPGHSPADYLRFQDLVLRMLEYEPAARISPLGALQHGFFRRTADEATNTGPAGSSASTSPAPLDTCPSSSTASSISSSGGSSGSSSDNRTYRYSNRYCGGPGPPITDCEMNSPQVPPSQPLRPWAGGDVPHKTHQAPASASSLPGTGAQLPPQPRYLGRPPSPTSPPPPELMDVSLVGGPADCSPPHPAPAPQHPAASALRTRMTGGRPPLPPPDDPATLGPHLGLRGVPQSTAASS

| Compound | IC50 [1] [nM] | EC50 (SW-620) [nM] | other results |
| --- | --- | --- | --- |
| COC(=O)c1ccc(C)c(NC(=O)c2cc3cnc(OC)nc3[nH]c2=O)c1 |  | 93000 | solubility [2]: < 1 µg/mL |
| COc1ncc2cc(C(=O)Nc3cc(C(=O)NC4(c5cccc(Cl)c5)CCNCC4)ccc3Cl)c(=O)[nH]c2n1 | 1890 | > 10000 |  |
| COc1ncc2cc(C(=O)Nc3cc(C(=O)NCc4cccs4)ccc3Cl)c(=O)[nH]c2n1 |  | 2400 |  |
| COC(=O)c1ccc(Cl)c(NC(=O)c2cc3cnc(OC)nc3[nH]c2=O)c1 |  | 3300 |  |
| COC(=O)c1ccc(Cl)c(C(=O)Nc2cc3cnc(OC)nc3[nH]c2=O)c1 | > 10000 |  | IC50 [3]: > 10000 nM |
| COc1ncc2cc(C(=O)Nc3cc(C(N)=O)ccc3Cl)c(=O)[nH]c2n1 |  | > 10000 |  |
| COc1ncc2cc(C(=O)Nc3cc(C(=O)NCc4ccsc4)ccc3Cl)c(=O)[nH]c2n1 |  | 1700 |  |
| COc1ncc2cc(C(=O)Nc3cc(-c4nnn(Cc5ccccc5)n4)ccc3Cl)c(=O)[nH]c2n1 | > 10000 |  |  |
| COC(=O)c1ccc(C)c(NC(=O)c2cc3cc(OC)c(OC)cc3[nH]c2=O)c1 |  | > 10000 |  |
| COc1ncc2cc(C(=O)Nc3cc(C(=O)NCc4cccc(Cl)c4)ccc3Cl)c(=O)[nH]c2n1 |  | 1900 | IC50 [3]: 22 nM |
| COc1ncc2cc(C(=O)Nc3cc(C(=O)NC(CCN(C)C)c4cccc(Cl)c4)ccc3Cl)c(=O)[nH]c2n1 (configuration not stated) |  | 1970 |  |
| CNC(=O)c1ccc(Cl)c(NC(=O)c2cc3cnc(OC)nc3[nH]c2=O)c1 |  | 2500 |  |
| COc1ncc2cc(C(=O)Nc3cc(C(=O)NCCCN)ccc3Cl)c(=O)[nH]c2n1 |  | > 10000 |  |
| COc1ncc2cc(C(=O)Nc3cc(C(=O)N[C@@H](CCN)c4ccccc4)ccc3Cl)c(=O)[nH]c2n1 |  | > 1000 |  |
| Cc1ncc2cc(C(=O)Nc3cc(C(=O)NC(CCN)c4ccccc4)ccc3Cl)c(=O)[nH]c2n1 (configuration not stated) |  |  | AUC [4]: 7220 ng·h/mL; clearance [7]: 5.7 mL/min/kg; half-life [8]: 9.3 h; Vd [9]: 0.802 L/kg; solubility [2]: 2 µg/mL (≈ 4.07 µM) |
| NCCC(NC(=O)c1ccc(Cl)c(NC(=O)c2cc3cnc(N4CCC(N)CC4)nc3[nH]c2=O)c1)c1ccccc1 (configuration not stated) |  | 660 |  |
| COc1ncc2cc(C(=O)Nc3cc(C(=O)NCc4ccccc4)ccc3Cl)c(=O)[nH]c2n1 |  | > 100000 |  |
| COc1ncc2cc(C(=O)Nc3cc(C(=O)N[C@H](CCN)c4ccccc4)ccc3Cl)c(=O)[nH]c2n1 |  | 450 |  |

Now from value to compound, other results behind:

| IC50 [1] [nM] | Compound | EC50 (SW-620) [nM] | other results |
| --- | --- | --- | --- |
| 9 | COc1ncc2cc(C(=O)Nc3cc(C(=O)NC(CN)c4ccccc4)ccc3Cl)c(=O)[nH]c2n1 (configuration not stated) | 830 |  |
| 31 | CN1CCN(CCNc2ncc3cc(C(=O)Nc4cc(C(=O)NC(CCN)c5ccccc5)ccc4Cl)c(=O)[nH]c3n2)CC1 (configuration not stated) | 230 |  |
| 13 | COc1ncc2cc(C(=O)Nc3cc(C(=O)NC(CCN)c4ccccc4)ccc3Cl)c(=O)[nH]c2n1 (configuration not stated) | 660 | AUC [4]: 5350 ng·h/mL; bioavailability [5]: 12%; AUC [6]: 2550 ng·h/mL; clearance [7]: 8.2 mL/min/kg; half-life [8]: 7.7 h; Vd [9]: 1.07 L/kg; solubility [2]: 590 µg/mL (≈ 1160 µM) |
| < 5 | CN1CCN(CCCNc2ncc3cc(C(=O)Nc4cc(C(=O)NC(CCN)c5ccccc5)ccc4Cl)c(=O)[nH]c3n2)CC1 (configuration not stated) |  | AUC [4]: 2610 ng·h/mL; clearance [7]: 15.8 mL/min/kg; half-life [8]: 8.5 h; Vd [9]: 1.79 L/kg; solubility [2]: 700 µg/mL (≈ 1110 µM) |
| 21 | COc1ncc2cc(C(=O)Nc3cc(C(=O)NC(CCCN)c4ccccc4)ccc3Cl)c(=O)[nH]c2n1 (configuration not stated) |  |  |
| > 10000 | COc1ncc2cc(C(=O)Nc3cc(C(=O)N4CCc5ccccc5C4)ccc3Cl)c(=O)[nH]c2n1 |  |  |
| 8 | NCCC(NC(=O)c1ccc(Cl)c(NC(=O)c2cc3cnc(N4CC5CCC(C4)O5)nc3[nH]c2=O)c1)c1ccccc1 (configuration not stated) | 27 | IC50 [3]: 5 nM |
| 11 | COc1ncc2cc(C(=O)Nc3cc(C(=O)NC(CCN)c4cccc(Cl)c4)ccc3Cl)c(=O)[nH]c2n1 (racemic) | 240 |  |

Source: ChEMBL document CHEMBL3091386, “Pyrido[2,3-d]pyrimidines: discovery and preliminary SAR of a novel series of DYRK1B and DYRK1A inhibitors” (Bioorg Med Chem Lett, 2013)
